Key:
[1] = test system: human hair follicle in the anagen stage; assay: Investigation of hair shaft elongation (organ culture of human hair follicle); format: cell-based; details: 1.0×10^-5 mol/L, 5-day incubation, 9 hair follicles per group
Procedure: A hair follicle in the anagen stage was isolated from a human scalp under a stereoscopic microscope observation, washed with “a medium prepared by adding penicillin, streptomycin and fungizone to Williams E medium (Gibco)” (hereinafter referred to as a (−) medium) and then examined for its length.
A medium obtained by supplementing the (−) medium further with 10 ng/ml hydrocortisone, 10 μg/ml insulin, 10 ng/ml sodium selenite and 10 μg/ml transferring (hereinafter ter referred to as a (+) medium) was dispensed in an aliquot of 1 ml per well into a 24-well microplate. The hair follicle described above was precipitated therein and incubated overnight at 37° C. in the presence of 5% CO2 (preincubation).
The elongation of the hair shaft in a hair follicle was determined by inspecting the microplate described above visually using an inverted microscope with a micrometer attached thereto.
A DMSO solution of a test material was added to a (−) medium for preparation. The final concentrations of the test material and DMSO were 1.0×10^−5 mol/L and 0.1%, respectively.
Only DMSO was added to a (−) medium at the final concentration of 0.1% for preparation.
The culture medium of the hair follicle groups described above was replaced each with the test materialcontaining medium or negative control medium, and the incubation was continued further for 5 days at 37° C. in the presence of 5% CO2. The length of each hair after 5-day incubation was measured, and the means were compared with each other.

[2] = test system: telogen hair roots of male subjects; assay: Trichogram test; format: in vivo, human; details: 50 nM in 70% ethanol, 2 ml twice a day on scalp for 6 months, 10 male subjects
Procedure: As test materials, Compound 1 and Compound 2 were employed. Each test material was dissolved in 70% ethanol similarly to Experiment 1 to obtain a sample (test material concentration: 50 nM).
The hair roots of hairs pulled out before and after the use of each sample were examined by a microscope to determine the telogen hair root count on the basis of the hair root morphology, and the increase or decrease in the rate was employed as an index for evaluating the hair growth promoting effect.
Specifically, each sample was applied onto the scalp of each of 10 male subjects twice a day in a 2 ml aliquot each time continuously for 6 months. 100 hairs per subject were pulled out immediately before the application and immediately after completion of 6-month application to count the telogen hair roots. The rate (%) of the number of the subjects whose telogen hair root after the application was decreased by 20% or more, changed by ±20% or increased by 20% or more with respect to that before the application was calculated.

[3] = Hair regrowth inducing effect test by cell cluster-accompanied culture method; format: cell-based; details: Homo sapiens, Human dermal papilla cell, 48 h, 2 days, Alamer Blue fluorescence, relative to negative control, read-out: Relative respiration level (%)
Procedure: The hair regrowth inducing effect was evaluated using, as an index, an increase in respiration level of a cell cluster formed under the coexistence of a normal human outer root sheath cell and a normal human dermal papilla cell.
Normal human dermal papilla cell (DP): A DP obtained by a primary culture from a head hair was subcultured three times in a 10% FBS-supplemented DMEM medium in a 75 cm^2 incubation flask coated with Type I collagen, and then stored while being frozen in a liquid nitrogen using a cell cryopreservation solution (Cellbanker II: DIA-IATRON).
Normal human outer root sheath cell (ORS): An ORS obtained by a primary culture from a head hair was subcultured three times in a SFM medium in a 75 cm^2 incubation flask coated with Type I collagen, and then stored while being frozen in a liquid nitrogen using Cellbanker II.
The DP and ORS cells stored as frozen were thawed, washed with an ice-cooled SFM medium, dispersed in the same medium and subjected to an accurate cell density measurement using a hemocytometer. Each cell density was adjusted at 5×10^4 cells/ml accurately, and the cell dispersions in equal volumes were combined under cooling with ice. 80 μl aliquots of the combined cell suspending SFM medium were inoculated into individual wells of a 96-well microplate (Sumilon celltight, spheroid 96U plate), and incubated for 2 days. The cell count in a single well upon inoculation was 2,000 cells for each of DP and ORS, thus 4,000 cells in total.
Each 80 μl of a test material-supplemented William's E(+) medium (William's E medium supplemented with 10 μg/ml transferrin, 10 ng/ml hydrocortisone, 10 μg/ml insulin and 10 ng/ml sodium selenite) was added to each well and incubated further for 2 days.
The test material-supplemented William's E(+) medium added to each well was prepared by dissolving the test material in ethanol at a concentration of 10 mM or 100 mM and adding to William's E(+) medium at 0.2% each. Accordingly, the final concentration of the test material in each well was 10 μM or 100 μM, and each final concentration of ethanol was 0.1%.
As a negative control, 80 μl of William's E(+) medium containing 0.2% ethanol was added (final concentration of ethanol was 0.1%).
Alamer Blue, SFM medium and William's E(+) medium were mixed in 2:1:1 ratio, warmed at 37° C. and then 40 μl aliquots were added to individual wells and allowed to react for 6 hours at 37° C. After completion of the reaction, 100 μl aliquots were taken from individual wells, and transferred to a white 96-well plate for fluorescence measurement (Opaque Plate).
A fluorometer (Labsystems Fluoroskan II) was used at the excitation wavelength of 544 nm and the fluorescent wavelength of 590 nm to measure the fluorescence intensity of each well, from which the fluorescent intensity of a cell-free reaction mixture (i.e., the reaction mixture treated similarly using a cell-free SFM medium) was subtracted to obtain a respiration level under each condition. From thus obtained respiration level, a relative respiration level(%) was calculated according to the following equation.
Relative respiration level(%)={Respiration level (test material)}/{Respiration level (negative control)}×100

[4] = test system: cultured human trichoepithelial cell; assay: Trichoepithelial cell growth promoting effect test; format: cell-based; details: 1.0×10^-6 mol/L, 2 days, Alamer Blue; negative control = 0, positive control (insulin + hydrocortisone) = 1
Procedure: According to the method described in JP-A-2000-63242, a cultured trichoepithelial cell of a human scalp was used to measure a trichoepithelial cell growth promoting effect.
From a human scalp obtained as a by-product of a surgical operation, a hair follicle at a anagen stage in a hair cycle was isolated mechanically under the observation by a stereoscopic microscope. This hair follicle at a anagen stage was treated in a Dulbecco's modified MEM (DMEM) supplemented with 1000 U/ml dispase and 0.2% collagenase for 30 minutes at 37° C. Adipose tissues, connective tissue root sheath and dermal papilla were removed therefrom using the tip of a syringe needle and the hair follicle was treated in a phosphate buffer containing 0.05% EDTA for 5 minutes at 37° C.
Subsequently, the hair follicle was placed on a culture dish coated with Type I collagen, and incubated in a KGM medium (serum-free keratinocyte growth medium). After incubation for 4 to 5 days, the culture medium was exchanged upon ensuring the adhesion of the hair follicle on the bottom face of the culture dish and the growth of the trichoepithelial cell, and thereafter the culture medium was exchanged every 2 days.
After the cell thus proliferated was treated in a phosphate buffer containing 0.05% trypsin and 0.02% EDTA for 5 minutes at 37° C., the reaction was quenched using an equal volume of 0.1% trypsin inhibitor and the cell was recovered by centrifugation (800×g, 5 minutes).
Subsequently, the cell was suspended in the serum-free culture medium described above, and inoculated at the density of 5000 cells/cm^2 onto a culture dish coated with Type I collagen. The culture medium was exchanged every 2 days until the cell became subconfluent. After treating the cell again in the phosphate buffer containing 0.05% trypsin and 0.02% EDTA for 5 minutes at 37° C., the reaction was quenched using an equal volume of 0.1% trypsin inhibitor and the cell was recovered by centrifugation (800×g, 5 minutes). The human trichoepithelial cell thus obtained was adjusted at the concentration of 100,000 cells/ml with a cell cryopreservation solution (Cellbanker: DIA-IATRON) added thereto, and dispensed into each freezing tube as a 100,000 cells (1 ml), which was then stored as being frozen. The cell counts described above were calculated using a hemocytometer.
After inoculating the trichoepithelial cell obtained in the step described above into a culture flask, the cell was treated with a phosphate buffer containing 0.25% trypsin and 0.02% EDTA. The reaction was quenched with 0.1% trypsin inhibitor, and then the mixture was centrifuged at 1,500 rpm for 5 minutes. The supernatant was removed, and the precipitated cell pellet was combined with a KGM medium to prepare a cell suspension.
The cell suspension in the KGM medium was inoculated to a Type I collager-coated 96-well microplate (Falcon) at 3,000 cells (0.2 ml)/well and allowed to stand for about 20 minutes at room temperature until the cell went down onto the bottom. Then, the cell was cultured for 1 day in an incubator in the presence of 5% CO2 at 37° C., whereby obtaining an intended cultured human trichoepithelial cell.
A test material and DMSO were added to a KGM medium at the final concentrations of 1.0×10^−6 mol/L and 0.1%, respectively.
Negative control: DMSO was added to a KGM medium at the final concentration of 0.1%.
Positive control: Insulin and hydrocortisone were dissolved in DMSO, which was then added to a KGM medium. The final concentrations of insulin, hydrocortisone and DMSO were 5 μg/ml, 0.5 μg/ml and 0.1%, respectively.
The KMG medium in the 96-well microplate employed for preparing the cultured human trichoepithelial cell in Step A described above was exchanged with a test material-supplemented medium or a control medium (200 μl/well), and the incubation was continued for 2 days in the presence of 5% CO2 at 37° C. […]

[5] = test system: C3H/He mice, whose hair cycle was at the telogen stage; assay: Hair regrowth effect test; format: in vivo; details: 0.1 ml once a day on shaved back, after 24 days, average of 6 mice
Procedure: The Compounds 1 to 5 described above were used as test materials. Each test material was dissolved in 70% ethanol aqueous solution and the solution was subjected to the application as a sample (test material concentration: 50 nM and 100 nM). 70% Ethanol was also used as a control sample.
The hair regrowth effect test was performed using C3H/He mice, whose hair cycle was at the telogen stage according to the method of Ogawa et. al. (Normal and Abnormal Epidermal Differentiation, Edited by M. Seiji and I. A. Bernstein, Pages 159-170, 1982, Todai Shuppan).
Namely, 6 mice were used in a group and their hair of the regions of back was shaved by hair clippers. 0.1 ml of sample was applied on the shaved regions once a day. After 24 days, the hair regrowth area was measured and the hair regrowth area rate was calculated based on the hair regrowth area with respect to the shaved area. The results are shown in Table 1 (expressed by average values).

SMILES | Mean of hair shaft elongation [1] | Rate of telogen hair root: 20% or more decrease (rate of subjects) [2] | Rate of telogen hair root: 20% or more increse (rate of subjects) [2] | Rate of telogen hair root: ±20% (rate of subjects) [2] | activity at 10 µM [3] | activity at 100 µM [3] | Cell growth promoting index [4] | Hair regrowth area rate ([5]; 50 nM in 70% ethanol) | Hair regrowth area rate ([5]; 100 nM in 70% ethanol)
CCCCCCCCCCCCCCCCOC(CO)COC (stereo not shown) [Compound 1, 2-Hexadecyloxy-3-methoxy-1-propanol] | 1.7 mm | 70% | 0% | 30% | 139% | 157% | 1.3 | 70% | 93%
CCCCCCCCCCCCCCCCOCC(O)COC (stereo not shown) [Compound 2, 1-Hexadecyloxy-3-methoxy-2-propanol] | 1.5 mm | 60% | 10% | 30% | 108% | 122% | 1.5 | 65% | 88%
CCCCCCCCCCCCCCCCOCCCO [Compound 3, 3-Hexadecyloxy-1-propanol] | 1.6 mm |  |  |  | 106% | 108% | 1.4 | 15% | 74%
CCCCCCCCCCCCCCCCOCC(COC)OC (stereo not shown) [Compound 4, 1-(2,3-Dimethoxypropoxy)hexadecane] | 1.9 mm |  |  |  | 127% | 134% | 1.4 | 68% | 78%
CCCCCCCCCCCCCCCCCCC(CO)OC (stereo not shown) [Compound 5, 2-Methoxy-1-eicosanol] | 1.4 mm |  |  |  | 124% | 130% | 1.2 | 70% | 76%
CCCCCCCCCCCCCCCCCC(=O)OCC(CO)OC (stereo not shown) [Compound 6, 3-Hydroxy-2-methoxypropyl stearate] | 1.7 mm |  |  |  | 101% | 102% | 1.3 |  | 
CCCCCCCCCCCCCCCCOC(CO)CO [Compound 7, 2-Hexadecyloxy-1,3-propanediol] | 1.2 mm |  |  |  | 122% | 129% | 1.5 |  | 
CCCCCCCCCCCCCCCCCCOCC(C)(C)CO [Compound 8, 2,2-Dimethyl-3-octadecyloxy-1-propanol] | 1.7 mm |  |  |  | 106% | 112% | 1.2 |  | 
CCCCCCCCCCCCCCCCCCC(O)CO (stereo not shown) [Compound 9, 1,2-eicosanediol] | 1.5 mm |  |  |  | 130% | 132% | 1.2 |  | 
